In the NIST ThermoML archive (doi:10.1021/je501162f):
± gives the expanded uncertainty stated by the source.

Legend:
[1] = for viscosity / mass density: 101.33 kPa; for viscosity / mass density / surface tension liquid-gas: Liquid; for mass density: Vibrating tube method; for surface tension liquid-gas: Pendant drop shape; for Glass transition temperature: DTA
[2] = molar heat capacity at constant pressure; conditions: 101.33 kPa, Liquid, Small sample (50 mg) DSC

surface tension liquid-gas ([1]; 293.15 K) [mN/m]	viscosity ([1]; 303.15 K) [mPa·s]	mass density ([1]; 303.15 K) [kg/m3]	surface tension liquid-gas ([1]; 303.15 K) [mN/m]	viscosity ([1]; 313.15 K) [mPa·s]	mass density ([1]; 313.15 K) [kg/m3]	surface tension liquid-gas ([1]; 313.15 K) [mN/m]	viscosity ([1]; 323.15 K) [mPa·s]	mass density ([1]; 323.15 K) [kg/m3]	surface tension liquid-gas ([1]; 323.15 K) [mN/m]	viscosity ([1]; 333.15 K) [mPa·s]	mass density ([1]; 333.15 K) [kg/m3]	surface tension liquid-gas ([1]; 333.15 K) [mN/m]	viscosity ([1]; 343.15 K) [mPa·s]	mass density ([1]; 343.15 K) [kg/m3]	surface tension liquid-gas ([1]; 343.15 K) [mN/m]	viscosity ([1]; 353.15 K) [mPa·s]	mass density ([1]; 353.15 K) [kg/m3]	surface tension liquid-gas ([1]; 353.15 K) [mN/m]	viscosity ([1]; 363.15 K) [mPa·s]	other results	Compound
29.28 ± 0.64	839.9 ± 97	1058.2 ± 2.2	28.88 ± 0.64	401.2 ± 35	1051.8 ± 2.2	28.46 ± 0.64	211 ± 13	1045.5 ± 2.2	28.17 ± 0.63	120.3 ± 5	1039.1 ± 2.2	27.76 ± 0.63	73.2 ± 2.1	1032.8 ± 2.2	27.62 ± 0.63	47.2 ± 1.2	1026.4 ± 2.2	27.14 ± 0.63	31.9 ± 0.8	viscosity ([1]; 293.15 K): 1969.8 ± 290 mPa·s; mass density ([1]; 293.15 K): 1064.5 ± 2.2 kg/m3; mass density ([1]; 363.15 K): 1020.1 ± 2.2 kg/m3; viscosity ([1]; 373.15 K): 22.4 ± 0.6 mPa·s; mass density ([1]; 373.15 K): 1013.9 ± 2.2 kg/m3; Glass transition temperature [1]: -62 ± 1 °C; molar heat capacity at constant pressure ([2]; 293.15 K): 561.68 ± 57 J/K/mol; molar heat capacity at constant pressure ([2]; 303.15 K): 569.53 ± 58 J/K/mol; molar heat capacity at constant pressure ([2]; 313.15 K): 578.89 ± 58 J/K/mol; molar heat capacity at constant pressure ([2]; 323.15 K): 590.88 ± 60 J/K/mol; molar heat capacity at constant pressure ([2]; 333.15 K): 603.42 ± 61 J/K/mol; molar heat capacity at constant pressure ([2]; 343.15 K): 615.85 ± 62 J/K/mol; molar heat capacity at constant pressure ([2]; 353.15 K): 627.51 ± 63 J/K/mol	CCCCCCCCn1cc[n+](C)c1.O=C([O-])[C@@H]1CCCN1 [1-methyl-3-octyl-1H-imidazol-3-ium L-prolinate]
34.29 ± 0.68	1178.7 ± 150	1069.3 ± 2.2	32.8 ± 0.67	536.2 ± 52	1062.7 ± 2.2	32.2 ± 0.7	271.2 ± 19	1056.1 ± 2.2	31.6 ± 0.7	149.6 ± 7.2	1049.7 ± 2.2	31 ± 0.7	88.9 ± 2.9	1043.3 ± 2.2	30.01 ± 0.65	56.2 ± 1.4	1036.9 ± 2.2	29.23 ± 0.64	37.5 ± 1	viscosity ([1]; 293.15 K): 2853 ± 470 mPa·s; mass density ([1]; 293.15 K): 1075.6 ± 2.2 kg/m3; mass density ([1]; 363.15 K): 1030.5 ± 2.2 kg/m3; viscosity ([1]; 373.15 K): 26.2 ± 0.7 mPa·s; mass density ([1]; 373.15 K): 1024.2 ± 2.2 kg/m3; Glass transition temperature [1]: -54 ± 1 °C; molar heat capacity at constant pressure ([2]; 293.15 K): 599.21 ± 61 J/K/mol; molar heat capacity at constant pressure ([2]; 303.15 K): 607.97 ± 61 J/K/mol; molar heat capacity at constant pressure ([2]; 313.15 K): 614.69 ± 62 J/K/mol; molar heat capacity at constant pressure ([2]; 323.15 K): 624.21 ± 63 J/K/mol; molar heat capacity at constant pressure ([2]; 333.15 K): 634.19 ± 64 J/K/mol; molar heat capacity at constant pressure ([2]; 343.15 K): 644.72 ± 65 J/K/mol; molar heat capacity at constant pressure ([2]; 353.15 K): 655.67 ± 66 J/K/mol	CCCCCCCC[n+]1ccn(C)c1.N[C@@H](CO)C(=O)[O-] [1-methyl-3-octyl-1H-imidazol-3-ium L-serinate]
28.24 ± 0.63	347.3 ± 28	982.1 ± 2.1	27.9 ± 0.63	184.6 ± 10	978.6 ± 2.1	27.23 ± 0.63	106.9 ± 4	975.8 ± 2.1	26.61 ± 0.62	65.7 ± 1.7	972.9 ± 2.1	26.11 ± 0.62	42.9 ± 1.1	969.3 ± 2.1	25.55 ± 0.62	29.1 ± 0.7	966.3 ± 2.1	24.99 ± 0.61	20.7 ± 0.5	viscosity ([1]; 293.15 K): 705.1 ± 76 mPa·s; mass density ([1]; 293.15 K): 985.3 ± 2.1 kg/m3; mass density ([1]; 363.15 K): 962.6 ± 2.1 kg/m3; viscosity ([1]; 373.15 K): 15.2 ± 0.4 mPa·s; mass density ([1]; 373.15 K): 959.7 ± 2.1 kg/m3; Glass transition temperature [1]: -66 ± 1 °C; molar heat capacity at constant pressure ([2]; 293.15 K): 592.06 ± 60 J/K/mol; molar heat capacity at constant pressure ([2]; 303.15 K): 600.95 ± 61 J/K/mol; molar heat capacity at constant pressure ([2]; 313.15 K): 609.08 ± 62 J/K/mol; molar heat capacity at constant pressure ([2]; 323.15 K): 620.49 ± 63 J/K/mol; molar heat capacity at constant pressure ([2]; 333.15 K): 632.82 ± 64 J/K/mol; molar heat capacity at constant pressure ([2]; 343.15 K): 645.14 ± 65 J/K/mol; molar heat capacity at constant pressure ([2]; 353.15 K): 657.43 ± 66 J/K/mol	CCCCCCCC[n+]1ccn(C)c1.C[C@H](N)C(=O)[O-] [1-methyl-3-octylimidazolium L-alaninate]
34.32 ± 0.68	3519.9 ± 610	1061.7 ± 2.2	33.7 ± 0.68	1436.8 ± 200	1057.2 ± 2.2	32.96 ± 0.67	659.1 ± 70	1052.2 ± 2.2	31.99 ± 0.66	333.3 ± 26	1048.6 ± 2.2	31.73 ± 0.66	182.6 ± 10	1044.1 ± 2.2	30.88 ± 0.66	107.1 ± 4	1039 ± 2.2	30.19 ± 0.65	66.6 ± 1.8	mass density ([1]; 363.15 K): 1034.4 ± 2.2 kg/m3; viscosity ([1]; 373.15 K): 43.5 ± 1.1 mPa·s; mass density ([1]; 373.15 K): 1030.1 ± 2.2 kg/m3; Glass transition temperature [1]: -44 ± 1 °C; molar heat capacity at constant pressure ([2]; 293.15 K): 654 ± 66 J/K/mol; molar heat capacity at constant pressure ([2]; 303.15 K): 662.93 ± 67 J/K/mol; molar heat capacity at constant pressure ([2]; 313.15 K): 670.78 ± 68 J/K/mol; molar heat capacity at constant pressure ([2]; 323.15 K): 682.99 ± 69 J/K/mol; molar heat capacity at constant pressure ([2]; 333.15 K): 694.16 ± 70 J/K/mol; molar heat capacity at constant pressure ([2]; 343.15 K): 705.81 ± 71 J/K/mol; molar heat capacity at constant pressure ([2]; 353.15 K): 717.01 ± 72 J/K/mol	CCCCCCCC[n+]1ccn(C)c1.NC(=O)C[C@H](N)C(=O)[O-] [1-methyl-3-octylimidazolium L-asparaginate]
35.37 ± 0.69	248.2 ± 17	1035.3 ± 2.2	33.98 ± 0.68	137.9 ± 6.3	1029.1 ± 2.2	32.81 ± 0.67	82.4 ± 2.5	1023 ± 2.2	31.35 ± 0.66	52.3 ± 1.3	1016.8 ± 2.2	30.07 ± 0.65	34.9 ± 0.9	1010.6 ± 2.1	28.75 ± 0.64	24.4 ± 0.6	1004.4 ± 2.1	27.42 ± 0.63	17.7 ± 0.4	viscosity ([1]; 293.15 K): 486.4 ± 45 mPa·s; mass density ([1]; 293.15 K): 1041.7 ± 2.2 kg/m3; mass density ([1]; 363.15 K): 998.6 ± 2.1 kg/m3; viscosity ([1]; 373.15 K): 13.3 ± 0.3 mPa·s; mass density ([1]; 373.15 K): 992.8 ± 2.1 kg/m3; Glass transition temperature [1]: -69 ± 1 °C; molar heat capacity at constant pressure ([2]; 293.15 K): 504.06 ± 51 J/K/mol; molar heat capacity at constant pressure ([2]; 303.15 K): 511.67 ± 52 J/K/mol; molar heat capacity at constant pressure ([2]; 313.15 K): 518.04 ± 52 J/K/mol; molar heat capacity at constant pressure ([2]; 323.15 K): 526.8 ± 53 J/K/mol; molar heat capacity at constant pressure ([2]; 333.15 K): 536.66 ± 54 J/K/mol; molar heat capacity at constant pressure ([2]; 343.15 K): 546.99 ± 55 J/K/mol; molar heat capacity at constant pressure ([2]; 353.15 K): 555.85 ± 56 J/K/mol	CCCCCCCCn1cc[n+](C)c1.NCC(=O)[O-] [1-methyl-3-octylimidazolium glycinate]
